Test results published in ChEMBL document CHEMBL5723583, “Data for DCP probe BAY-9835” (2024).
Calls of active or inactive are those of the source. The calls are words filed in the database; no cut-off is given here.

Legend:
[1] = molecular target: Adenosine receptor A3 (Homo sapiens) (UniProt P0DMS8); test: Inhibition of Adenosine A3 at 10.0 µM in the Eurofins-Panlabs selectivity screen; conditions: Compound concentration 10.0 uM
[2] = molecular target: Type-2 angiotensin II receptor (Homo sapiens) (UniProt P50052); test: Inhibition of Angiotensin AT2 at 10.0 µM in the Eurofins-Panlabs selectivity screen; conditions: Compound concentration 10.0 uM
[3] = molecular target: Androgen receptor (Homo sapiens) (UniProt P10275); test: Inhibition of Androgen (Testosterone) at 10.0 µM in the Eurofins-Panlabs selectivity screen; conditions: Compound concentration 10.0 uM
[4] = molecular target: A disintegrin and metalloproteinase with thrombospondin motifs 12 (Homo sapiens, UniProt P58397); test: Biochemical enzymatic FRET assay (hADAMTS12) ( FRET substrate, HiLyteFluor-488 DELSSMVLELRGLRT-K(QXL520)-E-NH2 (custom synthesis by Anaspec) was used.)
[5] = molecular target: Monoamine oxidase A (MAO-A) (Homo sapiens, UniProt P21397); test: Inhibition of Monoamine Oxidase MAO-A at 10.0 µM in the Eurofins-Panlabs selectivity screen; conditions: compound concentration 10 uM
Sequence of Monoamine oxidase A (MAO-A) (P21397 whole entry): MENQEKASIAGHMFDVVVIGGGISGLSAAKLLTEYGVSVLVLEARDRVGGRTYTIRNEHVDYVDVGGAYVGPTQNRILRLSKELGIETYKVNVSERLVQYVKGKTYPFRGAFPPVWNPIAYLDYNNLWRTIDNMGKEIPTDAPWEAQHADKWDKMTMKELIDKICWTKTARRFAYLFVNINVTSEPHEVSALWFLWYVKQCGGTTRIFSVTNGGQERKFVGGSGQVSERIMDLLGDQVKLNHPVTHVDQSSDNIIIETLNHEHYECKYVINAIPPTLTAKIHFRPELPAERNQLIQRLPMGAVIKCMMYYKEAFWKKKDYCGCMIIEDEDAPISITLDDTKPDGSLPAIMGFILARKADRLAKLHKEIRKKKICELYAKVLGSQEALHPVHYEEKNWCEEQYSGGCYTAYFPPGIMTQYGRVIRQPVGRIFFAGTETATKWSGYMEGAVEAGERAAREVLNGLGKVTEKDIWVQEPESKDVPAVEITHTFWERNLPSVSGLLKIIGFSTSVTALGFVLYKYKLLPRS

[6] = molecular target: GABA transporter (Rattus norvegicus) (UniProt P31647+P23978+P31646+P48056); test: Inhibition of Transporter, GABA at 10.0 µM in the Eurofins-Panlabs selectivity screen; format: protein assay; conditions: Compound concentration 10.0 uM
Sequence of GABA transporter (Rattus norvegicus) (P31646 whole entry, looked up): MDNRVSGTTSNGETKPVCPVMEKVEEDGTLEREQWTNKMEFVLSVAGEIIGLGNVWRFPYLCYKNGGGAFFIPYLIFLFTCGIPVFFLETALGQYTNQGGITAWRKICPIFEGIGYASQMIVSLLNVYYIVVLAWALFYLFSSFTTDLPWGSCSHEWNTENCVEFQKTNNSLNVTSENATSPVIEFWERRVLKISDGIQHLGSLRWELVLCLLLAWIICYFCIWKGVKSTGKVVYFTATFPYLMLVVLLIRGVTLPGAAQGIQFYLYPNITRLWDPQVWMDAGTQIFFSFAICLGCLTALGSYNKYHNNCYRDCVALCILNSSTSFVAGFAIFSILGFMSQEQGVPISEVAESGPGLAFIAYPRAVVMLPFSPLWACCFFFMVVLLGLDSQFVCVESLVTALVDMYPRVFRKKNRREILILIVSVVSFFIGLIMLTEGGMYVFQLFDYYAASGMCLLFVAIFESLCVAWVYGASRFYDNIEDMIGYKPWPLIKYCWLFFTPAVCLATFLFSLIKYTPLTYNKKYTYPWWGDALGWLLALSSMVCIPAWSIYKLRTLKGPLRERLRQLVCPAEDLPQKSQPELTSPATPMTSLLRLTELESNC
Sequence of GABA transporter (Rattus norvegicus) (P31647 whole entry, looked up): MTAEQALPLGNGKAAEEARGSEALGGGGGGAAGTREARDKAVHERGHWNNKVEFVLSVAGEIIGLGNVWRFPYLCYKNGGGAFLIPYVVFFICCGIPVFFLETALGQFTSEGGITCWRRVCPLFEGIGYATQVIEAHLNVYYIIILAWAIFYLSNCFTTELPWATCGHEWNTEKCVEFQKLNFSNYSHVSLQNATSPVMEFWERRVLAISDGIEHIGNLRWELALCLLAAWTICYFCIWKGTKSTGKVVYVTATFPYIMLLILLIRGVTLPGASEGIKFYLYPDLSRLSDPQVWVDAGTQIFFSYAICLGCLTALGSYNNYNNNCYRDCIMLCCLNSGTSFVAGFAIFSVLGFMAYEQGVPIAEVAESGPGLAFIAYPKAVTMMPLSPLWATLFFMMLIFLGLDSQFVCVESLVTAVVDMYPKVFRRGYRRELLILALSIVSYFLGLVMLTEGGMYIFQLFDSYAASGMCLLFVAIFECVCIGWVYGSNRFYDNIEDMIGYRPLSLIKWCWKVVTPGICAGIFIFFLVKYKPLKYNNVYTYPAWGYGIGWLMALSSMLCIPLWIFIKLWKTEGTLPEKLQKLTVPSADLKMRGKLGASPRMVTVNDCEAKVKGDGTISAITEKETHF
Sequence of GABA transporter (Rattus norvegicus) (P48056 whole entry, looked up): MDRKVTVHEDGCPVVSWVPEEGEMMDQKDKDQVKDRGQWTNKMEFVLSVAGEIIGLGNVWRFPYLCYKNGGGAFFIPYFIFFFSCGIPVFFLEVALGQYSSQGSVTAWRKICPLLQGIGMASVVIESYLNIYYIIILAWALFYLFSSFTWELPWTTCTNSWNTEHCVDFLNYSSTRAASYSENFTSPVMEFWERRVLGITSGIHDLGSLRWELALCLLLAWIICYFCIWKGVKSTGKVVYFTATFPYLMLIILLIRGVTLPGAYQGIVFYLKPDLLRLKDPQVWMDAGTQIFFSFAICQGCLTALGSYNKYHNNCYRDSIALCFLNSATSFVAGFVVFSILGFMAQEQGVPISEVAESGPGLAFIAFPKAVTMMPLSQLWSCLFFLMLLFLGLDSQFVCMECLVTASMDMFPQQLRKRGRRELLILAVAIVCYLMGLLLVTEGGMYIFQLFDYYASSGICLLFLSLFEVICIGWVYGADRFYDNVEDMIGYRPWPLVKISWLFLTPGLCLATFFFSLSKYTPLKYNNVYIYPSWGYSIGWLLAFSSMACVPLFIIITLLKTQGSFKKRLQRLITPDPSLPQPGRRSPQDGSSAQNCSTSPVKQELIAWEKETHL

[7] = molecular target: Glucocorticoid receptor (Homo sapiens) (UniProt P04150); test: Inhibition of Glucocorticoid at 10.0 µM in the Eurofins-Panlabs selectivity screen; conditions: Compound concentration 10.0 uM
[8] = molecular target: Beta-1 adrenergic receptor (Homo sapiens) (UniProt P08588); test: Inhibition of Adrenergic beta1 at 10.0 µM in the Eurofins-Panlabs selectivity screen; conditions: Compound concentration 10.0 uM
Sequence of Beta-1 adrenergic receptor (Homo sapiens) (P08588 whole entry, looked up): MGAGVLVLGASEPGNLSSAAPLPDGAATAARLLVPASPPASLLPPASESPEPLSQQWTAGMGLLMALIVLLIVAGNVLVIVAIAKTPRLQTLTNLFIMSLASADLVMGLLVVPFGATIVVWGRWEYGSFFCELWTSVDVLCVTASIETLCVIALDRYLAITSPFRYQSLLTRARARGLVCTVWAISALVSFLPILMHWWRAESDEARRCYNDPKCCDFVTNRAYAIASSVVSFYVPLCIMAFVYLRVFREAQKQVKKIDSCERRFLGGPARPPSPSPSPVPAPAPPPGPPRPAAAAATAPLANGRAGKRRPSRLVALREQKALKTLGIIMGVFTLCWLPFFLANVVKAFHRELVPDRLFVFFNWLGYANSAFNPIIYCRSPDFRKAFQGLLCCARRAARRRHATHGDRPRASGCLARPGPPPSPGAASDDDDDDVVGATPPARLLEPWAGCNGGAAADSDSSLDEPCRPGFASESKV

[9] = molecular target: Phosphodiesterase 3 (Homo sapiens) (UniProt Q14432+Q13370); test: Inhibition of Phosphodiesterase PDE3 at 10.0 µM in the Eurofins-Panlabs selectivity screen; format: protein assay; conditions: Compound concentration 10.0 uM
[10] = molecular target: Calpain-1 catalytic subunit (Homo sapiens, UniProt P07384); test: IC50 of Calpain 1 at 1.0 µM in the Bayer in-house protease panel
[11] = molecular target: Acetylcholinesterase (Homo sapiens) (UniProt P22303); test: Inhibition of Cholinesterase, Acetyl, ACES at 10.0 µM in the Eurofins-Panlabs selectivity screen; conditions: Compound concentration 10.0 uM
[12] = molecular target: A disintegrin and metalloproteinase with thrombospondin motifs 4 (Homo sapiens, UniProt O75173); test: IC50 of hADAMTS4 at 1.0 µM in the Bayer in-house protease panel
Sequence of A disintegrin and metalloproteinase with thrombospondin motifs 4 (O75173 whole entry): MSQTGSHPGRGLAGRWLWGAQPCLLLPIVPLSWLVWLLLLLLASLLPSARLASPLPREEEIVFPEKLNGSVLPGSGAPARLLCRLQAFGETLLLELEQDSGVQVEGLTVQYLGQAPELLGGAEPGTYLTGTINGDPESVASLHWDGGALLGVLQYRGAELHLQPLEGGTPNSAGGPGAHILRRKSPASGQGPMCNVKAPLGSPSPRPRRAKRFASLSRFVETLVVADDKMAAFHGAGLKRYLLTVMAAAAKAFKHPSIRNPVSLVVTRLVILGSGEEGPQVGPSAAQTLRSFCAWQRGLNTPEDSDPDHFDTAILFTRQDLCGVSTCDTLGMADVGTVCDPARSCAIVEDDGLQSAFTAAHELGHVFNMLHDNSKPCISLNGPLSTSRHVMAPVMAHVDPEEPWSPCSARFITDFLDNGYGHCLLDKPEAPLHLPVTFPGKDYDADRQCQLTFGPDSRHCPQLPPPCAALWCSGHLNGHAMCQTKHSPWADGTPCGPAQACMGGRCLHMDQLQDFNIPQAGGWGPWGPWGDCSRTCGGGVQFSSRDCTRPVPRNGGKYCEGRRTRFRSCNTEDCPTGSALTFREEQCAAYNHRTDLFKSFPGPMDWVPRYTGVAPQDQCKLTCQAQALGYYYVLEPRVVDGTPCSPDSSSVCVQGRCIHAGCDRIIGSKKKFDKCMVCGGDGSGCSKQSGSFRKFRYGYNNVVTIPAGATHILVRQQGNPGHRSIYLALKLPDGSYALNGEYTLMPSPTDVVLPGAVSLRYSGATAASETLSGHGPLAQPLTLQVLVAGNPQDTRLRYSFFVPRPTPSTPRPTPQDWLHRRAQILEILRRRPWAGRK

[13] = molecular target: Growth hormone secretagogue receptor type 1 (Homo sapiens) (UniProt Q92847); test: Inhibition of Growth Hormone Secretagogue (GHS, Ghrelin) at 10.0 µM in the Eurofins-Panlabs selectivity screen; conditions: Compound concentration 10.0 uM
[14] = molecular target: 5-hydroxytryptamine receptor 2C (Homo sapiens) (UniProt P28335); test: Inhibition of Serotonin (5-Hydroxytryptamine) 5-HT2C at 10.0 µM in the Eurofins-Panlabs selectivity screen; conditions: Compound concentration 10.0 uM
[15] = molecular target: Mucosa-associated lymphoid tissue lymphoma translocation protein 1 (Homo sapiens, UniProt Q9UDY8); test: IC50 of MALT1 at 1.0 µM in the Bayer in-house protease panel
[16] = molecular target: Disintegrin and metalloproteinase domain-containing protein 8 (Homo sapiens, UniProt P78325); test: IC50 of hADAM8 at 1.0 µM in the Bayer in-house protease panel
[17] = molecular target: Polyunsaturated fatty acid lipoxygenase ALOX15 (Homo sapiens) (UniProt P16050); test: Inhibition of Lipoxygenase 15-LO at 10.0 µM in the Eurofins-Panlabs selectivity screen; conditions: Compound concentration 10.0 uM
[18] = molecular target: 72 kDa type IV collagenase (Homo sapiens, UniProt P08253); test: IC50 of hMMP2 at 1.0 µM in the Bayer in-house protease panel
Sequence of 72 kDa type IV collagenase (P08253 whole entry): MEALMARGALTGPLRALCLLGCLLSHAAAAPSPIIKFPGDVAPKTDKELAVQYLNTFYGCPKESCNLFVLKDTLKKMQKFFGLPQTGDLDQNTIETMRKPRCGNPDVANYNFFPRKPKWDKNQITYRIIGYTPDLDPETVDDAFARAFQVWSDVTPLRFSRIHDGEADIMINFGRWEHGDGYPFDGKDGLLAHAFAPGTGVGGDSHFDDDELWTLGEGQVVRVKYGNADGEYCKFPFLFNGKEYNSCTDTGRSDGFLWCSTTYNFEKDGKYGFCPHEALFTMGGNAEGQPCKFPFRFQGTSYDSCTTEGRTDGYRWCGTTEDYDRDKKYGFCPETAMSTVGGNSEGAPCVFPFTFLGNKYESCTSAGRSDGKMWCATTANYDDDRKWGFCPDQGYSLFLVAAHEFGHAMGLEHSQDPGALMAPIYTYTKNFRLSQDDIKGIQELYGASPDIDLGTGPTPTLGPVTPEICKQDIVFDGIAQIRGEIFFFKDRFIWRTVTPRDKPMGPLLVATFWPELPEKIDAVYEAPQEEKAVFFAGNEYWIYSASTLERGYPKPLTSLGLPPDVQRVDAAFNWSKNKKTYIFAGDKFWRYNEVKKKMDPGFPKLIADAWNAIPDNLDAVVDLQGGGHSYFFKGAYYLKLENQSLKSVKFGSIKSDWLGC

[19] = molecular target: Matrix metalloproteinase-14 (Homo sapiens, UniProt P50281); test: IC50 of hMMP14 at 1.0 µM in the Bayer in-house protease panel

In the case of `Cn1nccc1[C@]1(CNC(=O)c2ccc(F)c(F)c2-c2ccc(C(F)(F)F)cc2)NC(=O)NC1=O`, the inhibition [1] is reported as 0%, the inhibition [2] is reported as 0% and the inhibition [3] is reported as 3%. For the same compound, the IC50 [4] was 0.03 µM (active), the inhibition at 10 µM [5] was 0% and the inhibition [6] was 7%. It also gave an inhibition [7] of 3%, an inhibition [8] of -8% and an inhibition [9] of 11%. The IC50 [10] was greater than 100 µM, the inhibition [11] was 3% and the IC50 [12] was 6.73 µM. It also gave an inhibition [13] of 6%, an inhibition [14] of -1% and an IC50 [15] greater than 100 µM. It also gave an IC50 [16] of 2.25 µM, an inhibition [17] of -6% and an IC50 [18] greater than 100 µM. For the same compound, the IC50 [19] was greater than 100 µM.
